Laboratory results: patent US11602534B2, “Pyrimidine derivative kinase inhibitors” (HEFEI INSTITUTES OF PHYSICAL SCIENCE, CHINESE ACADEMY OF …, priority 2017, dated 2023)

Key:
[1] = tested on: Chinese hamster ovary (CHO) cells; assay: cells; type: cell-based; settings: Cricetulus griseus, 72 hours, Cell Titer-Glo
Experimental: (§1) In addition, in this example the inhibitory activity of preferred compounds (Compound 5 and Compound 135) was tested against the following cell strains: human acute myeloid leukemia cell strain MV4-11 (expressing FLT3/ITD mutant gene), human acute myeloid leukemia cell strain MOLM-13 (expressing FLT3/ITD mutant gene and wild-type FLT3 gene), human acute myeloid leukemia cell strain MOLM-14 (expressing FLT3/ITD mutant gene and wild-type FLT3 gene), human acute myeloid leukemia cell strain OCI-AML-3 (expressing FLT3 A680V mutant gene), human chronic lymphatic leukemia cell strain MEC-1, Chinese hamster lung (CHL) cells, Chinese hamster ovary (CHO) cells, wherein all the cells were purchased from ATCC. In the example the compounds of the present invention were added respectively into the above cells at different concentrations (0.000508 μM, 0.00152 μM, 0.00457 μM, 0.0137 μM, 0.0411 μM, 0.123 μM, 0.370 μM, 1.11 μM, 3.33 μM, 10 μM in DMSO) and the cells were incubated for 72 hours. The number of viable cells was determined by quantification of ATP in living cells using Cell Titer-Glo® (Promega, the USA) Luminescent Cell Viability Assay kit and thereby GI50 was calculated.

[2] = tested on: Chinese hamster lung (CHL) cells; assay: cells; type: cell-based; settings: Cricetulus griseus, 72 hours, Cell Titer-Glo
Experimental: as §1

Tel-RET-BaF3 = assay: Proliferation of Tel-RET-BaF3 cells, CCK8 cell viability assay; type: cell-based; settings: Mus musculus, 72 hours, stably expressing RET kinase
[3] = Phosphorylation of STATS downstream of FLT3 in AML cells; type: cell-based, human; settings: MV-4-11, MOLM13 and MOLM-14; 4 hours; compounds 0.01-3 μM, PKC412 1 μM
Experimental: (§2) In cells having FLT3 gene and/or FLT3/ITD mutant gene, specifically, human acute myeloid leukemia cells MV4-11 (expressing FLT3/ITD mutant gene) cell strain and human acute myeloid leukemia cells MOLM-13 and MOLM-14 (expressing FLT3/ITD mutant gene and wild-type FLT3 gene) cell strains, Compound 5, Compound 135 and a FLT3 kinase inhibitor, PKC412 (purchased from Hao Yuan Chemexpress Company, Shanghai), which was used as the control, were evaluated for their effects in cells on phosphorylation of FLT3 and FLT3/ITD protein kinase and phosphorylation of the closely-related STATS protein which is downstream of FLT3 signaling pathways, as well as their effects on phosphorylation of other relevant protein kinases such as ERK and AKT, by assaying a number of cellular biochemical and functional endpoints. In addition, the effects on C-Myc and phosphorylation of the transcription factor NF-κB subunit p65 was also examined (FIGS. 1a-1f). Compound 5 and Compound 135 at different concentrations (0 μM, 0.01 μM, 0.03 μM, 0.1 μM, 0.3 μM, 1 μM, 3 μM in DMSO) and the FLT3 kinase inhibitor PKC412 (1 μM in DMSO) were used to treat acute myeloid leukemia cells MV-4-11, MOLM13 and MOLM-14 that had FLT3 and/or FLT3/ITD gene for 4 hours, respectively, and then the samples were collected. The effects of the compounds on the phosphorylation of proteins such as STATS, C-Myc, ERK, NF-κB p65, AKT in cells were tested (FIGS. 1a-1f).

[4] = tested on: human chronic lymphatic leukemia cell strain MEC-1; assay: Proliferation of MEC-1 cells, Cell Titer-Glo; type: cell-based; settings: MEC1, 72 hours
Experimental: as §1

FLT3-ITD-BaF3 = assay: Proliferation of FLT3-ITD-BaF3 cells, CCK8 cell viability assay; type: cell-based; settings: Mus musculus, 72 hours, stably expressing FLT3/ITD
In short: (§3)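 Human kinase-region sequences were PCR-amplified, fused behind N-terminal TEL in MSCV-Puro and stably introduced into mouse BaF3 by retrovirus. IL-3 was then removed to give kinase-dependent lines. Compound effects on these and on parental BaF3 are scored as GI50 (μM) via CCK8 viable-cell quantification.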

Tel-cKit-BaF3 = assay: Proliferation of Tel-cKit-BaF3 cells, CCK8 cell viability assay; type: cell-based, mouse; settings: Mus musculus; 72 hours, CCK8; stably expressing cKIT kinase
In short: (§4)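 Murine BaF3 cells made IL-3-independent by retroviral transduction of human kinase domains fused to N-terminal TEL or TPR fragments; parental BaF3 included. Living cells quantified by CCK8 (dehydrogenase activity) read-out, giving GI50 in μM.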

Tel-FLT3-BaF3 = assay: Proliferation of Tel-FLT3-BaF3 cells, CCK8 cell viability assay; type: cell-based; settings: Mus musculus, 72 hours, stably expressing FLT3 kinase
In short: as §3

protein kinase FLT3 = assay: Phosphorylation of FLT3 in AML cells; type: cell-based, human; settings: MV-4-11, MOLM-13 and MOLM-14 cell lines; 4 hours; compounds 0.01-3 μM, PKC412 1 μM
Experimental: as §2

P210-BaF3 = assay: Proliferation of P210-BaF3 cells, CCK8 cell viability assay; type: cell-based; settings: Mus musculus, 72 hours, stably expressing BCR-ABL mutant activated kinase
In short: as §3

TEL-PDGFRβ-BaF3 = assay: Proliferation of TEL-PDGFRβ-BaF3 cells, CCK8 cell viability assay; type: cell-based; settings: Mus musculus, 72 hours, stably expressing PDGFRβ kinase
In short: as §4

[5] = tested on: human acute myeloid leukemia cell strain MOLM-14; assay: Proliferation of MOLM-14 cells, Cell Titer-Glo; type: cell-based; settings: for GI50: Homo sapiens, MOLM-14, 72 hours, Cell Titer-Glo, FLT3/ITD and wild-type FLT3, read-out: GI50 MOLM14
Experimental: as §1

TEL-VEGFR2-BaF3 = assay: Proliferation of TEL-VEGFR2-BaF3 cells, CCK8 cell viability assay; type: cell-based; settings: Mus musculus, 72 hours, stably expressing VEGFR2 kinase
In short: as §3

C-Myc = assay: Degradation of C-Myc in AML cells; type: cell-based, human; settings: MV-4-11, MOLM13 and MOLM-14; 4 hours; compounds 0.01-3 μM, PKC412 1 μM
Experimental: as §2

| GI50 (Tel-RET-BaF3) [nM] | GI50 [4] [nM] | GI50 (FLT3-ITD-BaF3) [nM] | GI50 (Tel-cKit-BaF3) [nM] | GI50 (Tel-FLT3-BaF3) [nM] | GI50 (P210-BaF3) [nM] | GI50 (TEL-PDGFRβ-BaF3) [nM] | GI50 [5] [nM] | GI50 (TEL-VEGFR2-BaF3) [nM] | Structure (SMILES) | GI50 [1] [nM] | GI50 [2] [nM] | phosphorylation of STATS [3] | phosphorylation of the protein kinase FLT3 (protein kinase FLT3) | inhibition of MOLM14 (in words) ([5]; summary of Table 3) | degradation of C-Myc (C-Myc) |
| --- | --- | --- | --- | --- | --- | --- | --- | --- | --- | --- | --- | --- | --- | --- | --- |
| > 10000 | > 10000 | 30 | 5600 | 746 | > 10000 | 58 | 333 | 357 | CC(=O)Nc1cc(Oc2ccc(NC(=O)Cc3ccc(F)cc3F)cc2)ncn1 [Example 5, N-[4-(6-acetylamino-pyrimidin-4-yloxy)-phenyl]-2-(2,4-difluoro-phenyl)-acetamide] | > 10000 | > 10000 | significant inhibition | capable of inhibiting phosphorylation | selectively and strongly inhibited | significant effects on the degradation |
| > 10000 | > 10000 | 32 | > 10000 | 249 | > 10000 | 40 | 343 | 1440 | CC(=O)Nc1cc(Oc2ccc(NC(=O)Cc3ccccc3C(F)(F)F)cc2)ncn1 [Example 135, N-[4-(6-acetylamino-pyrimidin-4-yloxy)-phenyl]-2-(2-trifluoromethyl-phenyl)-acetamide] | > 10000 | > 10000 | significant inhibition | capable of inhibiting phosphorylation |  | significant effects on the degradation |
